Values joined by “and” are separate entries in the source; they are usually repeats but may differ in a detail not shown here. Equal entries are not always repeated. Inconclusive results and toxic doses are left out.
Tested on: P388 leukemia ip, CD2F1 mice, survival T/C
Assay: NCI In Vivo Anticancer Drug Screen. Data for tumor model P388 Leukemia (intraperitoneal) in CD2F1 (CDF1) mice
Conditions: endpoint: median survival time, higher = longer survival
In short: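 Mice carrying the transplanted tumor received test compound or vehicle. Survival was recorded in each group, and the value is the treated-group measurement divided by that of the vehicle-treated control group.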

[1] = dose: 50.0 mg/kg/injection, schedule: Q01DX005 (ip), vehicle: saline with Tween-80
[2] = dose: 100.0 mg/kg/injection, schedule: Q01DX005 (ip), vehicle: saline with Tween-80
[3] = dose: 200.0 mg/kg/injection, schedule: Q01DX005 (ip), vehicle: saline with Tween-80
[4] = dose: 100.0 mg/kg/injection, schedule: Q01DX001 (ip), vehicle: saline with Tween-80

In the case of COC(=O)c1cc(=O)n(-c2ccccc2C(F)(F)F)c(SC)n1, the T/C (dose: 50.0 mg/kg/injection, schedule: Q04DX003 (ip), vehicle: Klucel (hydroxypropylcellulose) (HPC)) is reported as 95 % of control and 97 % of control, the T/C (dose: 100.0 mg/kg/injection, schedule: Q04DX003 (ip), vehicle: Klucel (hydroxypropylcellulose) (HPC)) is reported as 99 % of control and 100 % of control and the T/C (dose: 200.0 mg/kg/injection, schedule: Q04DX003 (ip), vehicle: Klucel (hydroxypropylcellulose) (HPC)) is reported as 104 % of control and 111 % of control. The T/C (dose: 400.0 mg/kg/injection, schedule: Q04DX003 (ip), vehicle: Klucel (hydroxypropylcellulose) (HPC)) was 110 % of control.
In the case of COC(=O)[C@H]1[C@H]2C[C@@H]3c4[nH]c5cc(OC)ccc5c4CCN3C[C@H]2C[C@@H](OC(=O)c2ccc(N)cc2)[C@@H]1OC, the T/C [1] is reported as 97 % of control, the T/C [2] is reported as 87 % of control and the T/C [3] is reported as 94 % of control.
COc1cc2c(c(OC)c1OC)-c1ccc(O)c(=O)cc1C(NC(C)=O)CC2 (stereo not drawn) was tested, and the T/C (dose: 2.5 mg/kg/injection, schedule: Q01DX009 (ip), vehicle: Klucel (hydroxypropylcellulose) (HPC)) was 100 % of control, the T/C (dose: 5.0 mg/kg/injection, schedule: Q01DX009 (ip), vehicle: Klucel (hydroxypropylcellulose) (HPC)) was 99 % of control and the T/C (dose: 10.0 mg/kg/injection, schedule: Q01DX009 (ip), vehicle: Klucel (hydroxypropylcellulose) (HPC)) was 100 % of control and 102 % of control. For the same molecule, the T/C (dose: 20.0 mg/kg/injection, schedule: Q01DX009 (ip), vehicle: Klucel (hydroxypropylcellulose) (HPC)) was 107 % of control and 115 % of control, the T/C (dose: 40.0 mg/kg/injection, schedule: Q01DX009 (ip), vehicle: Klucel (hydroxypropylcellulose) (HPC)) was 108 % of control and the T/C (dose: 80.0 mg/kg/injection, schedule: Q01DX009 (ip), vehicle: Klucel (hydroxypropylcellulose) (HPC)) was 110 % of control.
In the case of COc1ccc(S(=O)(=O)N/N=C/c2cc(=O)[nH]c(=O)[nH]2)cc1, the T/C (dose: 25.0 mg/kg/injection, schedule: Q01DX005 (ip), vehicle: saline with Tween-80) is reported as 100 % of control, the T/C [1] is reported as 101 % of control and the T/C [2] is reported as 105 % of control. For the same molecule, the T/C [3] was 118 % of control.
CCCCCCOC(CN(C)C)C(Cl)(Cl)Cl (stereo not drawn) was tested, and the T/C (dose: 50.0 mg/kg/injection, schedule: Q01DX009 (ip), vehicle: suspension in saline) was 97 % of control, the T/C (dose: 100.0 mg/kg/injection, schedule: Q01DX009 (ip), vehicle: suspension in saline) was 96 % of control and the T/C (dose: 400.0 mg/kg/injection, schedule: Q01DX009 (ip), vehicle: suspension in saline) was 124 % of control.
Cc1cc(C2(c3cc(C)c(O)c(Br)c3)OS(=O)(=O)c3ccccc32)cc(Br)c1O was tested, and the T/C (dose: 60.0 mg/kg/injection, schedule: Q01DX005 (ip), vehicle: saline with Tween-80) was 99 % of control, the T/C (dose: 120.0 mg/kg/injection, schedule: Q01DX005 (ip), vehicle: saline with Tween-80) was 102 % of control and the T/C (dose: 240.0 mg/kg/injection, schedule: Q01DX005 (ip), vehicle: saline with Tween-80) was 90 % of control.
In the case of COC(=O)c1ccccc1NC(=O)N1CC1, the T/C (dose: 50.0 mg/kg/injection, schedule: Q01DX005 (ip), vehicle: DMSO) is reported as 105 % of control and the T/C (dose: 100.0 mg/kg/injection, schedule: Q01DX005 (ip), vehicle: DMSO) is reported as 118 % of control.
In the case of COc1cccc2c1C(=O)c1c(O)c3c(c(O)c1C2=O)CC(O)(C(O)CO)CC3OC1CC(N2CCCCC2)C(O)C(C)O1 (stereo not drawn), the T/C (dose: 0.39 mg/kg/injection, schedule: Q01DX009 (ip), vehicle: water) is reported as 115 % of control, the T/C (dose: 1.56 mg/kg/injection, schedule: Q01DX009 (ip), vehicle: water) is reported as 153 % of control and 157 % of control and the T/C (dose: 2.4 mg/kg/injection, schedule: Q04DX003 (ip), vehicle: water) is reported as 100 % of control. For the same molecule, the T/C (dose: 4.7 mg/kg/injection, schedule: Q04DX003 (ip), vehicle: water) was 106 % of control, the T/C (dose: 9.4 mg/kg/injection, schedule: Q04DX003 (ip), vehicle: water) was 114 % of control and 124 % of control and the T/C (dose: 18.8 mg/kg/injection, schedule: Q04DX003 (ip), vehicle: water) was 124 % of control. The T/C (dose: 75.0 mg/kg/injection, schedule: Q04DX003 (ip), vehicle: water) was 101 % of control.
In the case of CCN(CC)CCCNc1cc(C)c2cc(OC)ccc2n1, the T/C (dose: 25.0 mg/kg/injection, schedule: Q01DX001 (ip), vehicle: saline with Tween-80) is reported as 99 % of control, the T/C (dose: 50.0 mg/kg/injection, schedule: Q01DX001 (ip), vehicle: saline with Tween-80) is reported as 97 % of control and the T/C [4] is reported as 90 % of control.
With S=c1cc(-c2ccccc2)c(-c2ccccc2)c(-c2ccccc2)s1 the T/C [4] was 91 % of control and the T/C (dose: 200.0 mg/kg/injection, schedule: Q01DX001 (ip), vehicle: saline with Tween-80) was 94 % of control.
With C/C=C/N1C(=O)C2C=CC1C(C(C)=O)C2 (stereo not drawn) the T/C (dose: 100.0 mg/kg/injection, schedule: Q04DX002 (ip), vehicle: saline) was 94 % of control, the T/C (dose: 200.0 mg/kg/injection, schedule: Q04DX002 (ip), vehicle: saline) was 98 % of control and the T/C (dose: 400.0 mg/kg/injection, schedule: Q04DX002 (ip), vehicle: saline) was 96 % of control.
With O[Si](c1ccccc1)(c1ccccc1)c1ccccc1.O[Si](c1ccccc1)(c1ccccc1)c1ccccc1.O[Si](c1ccccc1)(c1ccccc1)c1ccccc1.[O]=[V] the T/C (dose: 50.0 mg/kg/injection, schedule: Q01DX005 (ip), vehicle: Klucel (hydroxypropylcellulose) (HPC)) was 92 % of control, the T/C (dose: 100.0 mg/kg/injection, schedule: Q01DX005 (ip), vehicle: Klucel (hydroxypropylcellulose) (HPC)) was 90 % of control and the T/C (dose: 200.0 mg/kg/injection, schedule: Q01DX005 (ip), vehicle: Klucel (hydroxypropylcellulose) (HPC)) was 92 % of control.

From PubChem BioAssay AID330 (DTP/NCI, 2004)
